Experimental data as given in patent publication US3968207A, “Method of controlling fleas and ticks on cats and dogs” (priority 1975, dated 1976).
Like-named read-outs stand apart in the source and are kept apart here.

Tests used:
Format in all cases: in vivo
[1] = test system: fleas and ticks; assay: Control of fleas and ticks (general statement); conditions: topically and systemically
[2] = test system: Amblyomma americanum; assay: Control of adult ticks on rabbits, Table II; conditions: for mortality at 0.05 % / mortality at 0.2 % / mortality at 0.4 %: Amblyomma americanum, topical, 96 h, 4 days after treatment
Protocol: The midsection of each host rabbit is clipped, and a rubber capsule is cemented to the clipped portion of the skin. After a 24-hour drying period, the 10 ticks are placed in the capsule and allowed to attack the host for 72 hours. On the day of treatment, each capsule is sprayed with 2-3 cc. of the test compound, O,O,O',O'-tetramethyl O,O'-thiodi-p-phenylene phosphorothioate. Sufficient rabbits were used to test at concentrations of 0.05%, 0.20% and 0.40% (w/w), respectively.
Mortality was noted 4 days after treatment. On those rabbits where female ticks survived, five untreated male ticks were introduced and the ticks allowed to mate. Fully engorged females were then removed from the capsule and placed in petri dishes for oviposition. Effect of fecundity is then determined by comparing the percent of eggs laid and the percent of eggs which hatch in the treated versus the controls.

[3] = test system: Ctenocephalides felis; assay: Flea control on dogs given oral doses (gelatin capsules), Table III; set-up: key to Flea Control: 100% Control; PC: Partial Control; NC: No Control
Protocol: Five groups of two mongrel dogs each were dosed daily with 0, 0.78, 3.1, 12.5 or 50 mg. O,O,O',O'-tetramethyl O,O'-thiodi-p-phenylene phosphorothioate/kg. body weight in gelatin capsules for 10 days. Medication began three days after infestations with 100 adult Ctenocephalides felis. […] Purina High Protein Dog Meal was fed once daily for the duration of the experiment. Water was provided ad libitum. The following table summarizes the results of the test.

[4] = test system: Ctenocephalides felis; assay: 2% powder against experimental flea infestations on cats; conditions: 60 mg/kg as 2% powder
Protocol: An experiment was conducted using O,O,O',O'-tetramethyl O,O'-thiodi-p-phenylene phosphorothioate which was prepared from a 25% concentrate diluted with talc so the final powder was 2% drug. Prior to the start of the test 23 cats were classified according to sex, age, hair length and color and divided into five groups. One of these groups was then randomly selected to be the controls and the other groups were assigned for treatment in a random order. The amount of 2% drug dust applied to each cat was calculated prior to treatment to give a dose rate of 60 mg. drug/kg. The duster was weighed before treating each cat and at intervals during dusting to get as near the desired dose as possible. […] Table VII summarizes the results obtained up to 48 days after treatment.

[5] = test system: Ctenocephalides felis; assay: 2% pressurized spray for control of fleas on dogs
Protocol: An experiment was carried out on dogs obtained from a licensed laboratory animal dealer. These dogs were mixed breeds and of different size and sex. The dogs were individually housed in cages with absorbent paper placed under each in order to count dead fleas. A mixture containing 2% O,O,O',O'-tetramethyl O,O'-thiodi-p-phenylene phosphorothioate (active ingredient) and having the following formula was used as a pressurized spray: […]
Two tests were carried out, one with 22 dogs and the other with 21 dogs, each test using 5 control dogs. Each dog was treated with approximately 60 mg./kg. of O,O,O',O'-tetramethyl O,O'-thiodi-p-phenylene phosphorothioate using the formulation described above. Each dog was infested with 100 1-day old adult C. felis 72 hours prior to spray treatment and reinfested on a weekly basis for 7 weeks, beginning 7 days after treatment. The five control dogs were treated with a blank spray containing everything except the active ingredient. After treatment or each reinfestation, daily examinations of each dog were made up to 7 days or until no live fleas could be found. Once a live flea was found, the dog was considered still infested even though the flea population may have been low. The number of dead fleas recovered from papers under the cages are expressed as average dead on treated/average dead on control are summarized in Table XVII.

## COP(=S)(OC)Oc1ccc(Sc2ccc(OP(=S)(OC)OC)cc2)cc1 [O,O,O',O'-tetramethyl O,O'-thiodi-p-phenylene phosphorothioate]
[1]
  controlling fleas and ticks: highly effective
[2]; 0.05% (w/w)
  Eggs Hatched (%): 90%
[2]; 0.20% (w/w)
  Eggs Hatched (%): 50%
[2]; 0.20% and 0.40% (w/w)
  Control of ticks: effectively controls amblyomma ticks by killing the adult males and some females and rendering the female ova non-viable
[2]; 0.40% (w/w)
  Eggs Hatched (%): 1%
[2]; 0.05% (w/w), read-out: Deaths (%) Females
  mortality at 0.05 %: 10%
[2]; 0.05% (w/w), read-out: Deaths (%) Males
  mortality at 0.05 %: 70%
[2]; 0.20% (w/w), read-out: Deaths (%) Females
  mortality at 0.2 %: 40%
[2]; 0.20% (w/w), read-out: Deaths (%) Males
  mortality at 0.2 %: 100%
[2]; 0.40% (w/w), read-out: Deaths (%) Females
  mortality at 0.4 %: 50%
[2]; 0.40% (w/w), read-out: Deaths (%) Males
  mortality at 0.4 %: 100%
[3]; oral 0.78 mg/kg
  flea activity: no flea activity was observed
[3]; oral 3.1 mg/kg daily, day 0
  Flea Control: NC
[3]; oral 3.1 mg/kg daily, day 1
  Flea Control: NC
[3]; oral 3.1 mg/kg daily, day 2
  Flea Control: NC
[3]; oral 3.1 mg/kg daily, day 3
  Flea Control: PC
[3]; oral 3.1 mg/kg daily, day 4
  Flea Control: PC
[3]; oral 3.1 mg/kg daily, day 7
  Flea Control: 100 (100% Control)
[3]; oral 3.1 mg/kg, both dogs, after 7 days
  Flea Control: complete control
[3]; oral 12.5 mg/kg daily, day 0
  Flea Control: NC
[3]; oral 12.5 mg/kg daily, day 2
  Flea Control: PC
[3]; oral 12.5 mg/kg daily, day 3
  Flea Control: PC
[3]; oral 12.5 mg/kg daily, day 4
  Flea Control: PC
[3]; oral 12.5 mg/kg daily, day 7
  Flea Control: 100 (100% Control)
[3]; oral 12.5 mg/kg, another dog, after 7 days
  Flea Control: complete control
[3]; oral 12.5 mg/kg, one dog, after 24 hours
  Flea Control: complete control
[3]; oral 50 mg/kg daily, day 0
  Flea Control: NC
[3]; oral 50 mg/kg daily, day 1
  Flea Control: 100 (100% Control)
[3]; oral 50 mg/kg, after 24 hours
  Flea Control: complete flea control
[3]; oral .78 mg/kg daily, day 0
  Flea Control: NC
[3]; oral .78 mg/kg daily, day 1
  Flea Control: NC
[3]; oral .78 mg/kg daily, day 2
  Flea Control: NC
[3]; oral .78 mg/kg daily, day 3
  Flea Control: NC
[3]; oral .78 mg/kg daily, day 4
  Flea Control: NC
[3]; oral .78 mg/kg daily, day 7
  Flea Control: NC
[3]; oral .78 mg/kg daily, day 8
  Flea Control: NC
[4]; fifth week
  control: 64%
[4]; for four weeks
  residual control against C. felis on cats: excellent residual control
[4]; for three weeks
  control: 100%
[4]; fourth week
  control: 90%
[4]; sixth week
  control: 40%
[5]; 60 mg/kg 2% pressurized spray, week 0
  Percent of Dogs with Control: 100%
[5]; 60 mg/kg 2% pressurized spray, week 1
  Percent of Dogs with Control: 100%
[5]; 60 mg/kg 2% pressurized spray, week 2
  Percent of Dogs with Control: 100%
[5]; 60 mg/kg 2% pressurized spray, week 3
  Percent of Dogs with Control: 100%
[5]; 60 mg/kg 2% pressurized spray, week 4
  Percent of Dogs with Control: 97.6%
[5]; 60 mg/kg 2% pressurized spray, week 5
  Percent of Dogs with Control: 95.2%
[5]; 60 mg/kg 2% pressurized spray, week 6
  Percent of Dogs with Control: 82.9%
[5]; 60 mg/kg 2% pressurized spray, week 7
  Percent of Dogs with Control: 58.5%
[5]; 60 mg/kg, week 0, control 2.0
  Avg. Dead on Treated, Average on Two Tests: 36.3
[5]; 60 mg/kg, week 1, control 5.6
  Avg. Dead on Treated, Average on Two Tests: 41.4
[5]; 60 mg/kg, week 2, control 3.0
  Avg. Dead on Treated, Average on Two Tests: 41.2
[5]; 60 mg/kg, week 3, control 4.8
  Avg. Dead on Treated, Average on Two Tests: 41.2
[5]; 60 mg/kg, week 4, control 5.2
  Avg. Dead on Treated, Average on Two Tests: 40.7
[5]; 60 mg/kg, week 5, control 5.6
  Avg. Dead on Treated, Average on Two Tests: 36.0
[5]; 60 mg/kg, week 6, control 4.8
  Avg. Dead on Treated, Average on Two Tests: 30.0
[5]; 60 mg/kg, week 7, control 4.8
  Avg. Dead on Treated, Average on Two Tests: 26.3
[5]; Combination of Test 1 & 2, 60 mg/kg, week 0, of 43
  Number of Dogs on Which Fleas were Controlled: 43 dogs
[5]; Combination of Test 1 & 2, 60 mg/kg, week 1, of 43
  Number of Dogs on Which Fleas were Controlled: 43 dogs
[5]; Combination of Test 1 & 2, 60 mg/kg, week 2, of 43
  Number of Dogs on Which Fleas were Controlled: 43 dogs
[5]; Combination of Test 1 & 2, 60 mg/kg, week 3, of 42
  Number of Dogs on Which Fleas were Controlled: 42 dogs
[5]; Combination of Test 1 & 2, 60 mg/kg, week 4, of 42
  Number of Dogs on Which Fleas were Controlled: 41 dogs
[5]; Combination of Test 1 & 2, 60 mg/kg, week 5, of 42
  Number of Dogs on Which Fleas were Controlled: 40 dogs
[5]; Combination of Test 1 & 2, 60 mg/kg, week 6, of 41
  Number of Dogs on Which Fleas were Controlled: 34 dogs
[5]; Combination of Test 1 & 2, 60 mg/kg, week 7, of 41
  Number of Dogs on Which Fleas were Controlled: 24 dogs
[5]; Experiment 1, 60 mg/kg 2% pressurized spray, week 0, of 22
  Number of Dogs on Which Fleas were Controlled: 22 dogs
[5]; Experiment 1, 60 mg/kg 2% pressurized spray, week 1, of 22
  Number of Dogs on Which Fleas were Controlled: 22 dogs
[5]; Experiment 1, 60 mg/kg 2% pressurized spray, week 2, of 22
  Number of Dogs on Which Fleas were Controlled: 22 dogs
[5]; Experiment 1, 60 mg/kg 2% pressurized spray, week 3, of 22
  Number of Dogs on Which Fleas were Controlled: 22 dogs
[5]; Experiment 1, 60 mg/kg 2% pressurized spray, week 4, of 22
  Number of Dogs on Which Fleas were Controlled: 22 dogs
[5]; Experiment 1, 60 mg/kg 2% pressurized spray, week 5, of 22
  Number of Dogs on Which Fleas were Controlled: 22 dogs
[5]; Experiment 1, 60 mg/kg 2% pressurized spray, week 6, of 22**
  Number of Dogs on Which Fleas were Controlled: 20 dogs
[5]; Experiment 1, 60 mg/kg 2% pressurized spray, week 7, of 21
  Number of Dogs on Which Fleas were Controlled: 12 dogs
[5]; Experiment 2, 60 mg/kg 2% pressurized spray, week 0, of 21
  Number of Dogs on Which Fleas were Controlled: 21 dogs
[5]; Experiment 2, 60 mg/kg 2% pressurized spray, week 1, of 21
  Number of Dogs on Which Fleas were Controlled: 21 dogs
[5]; Experiment 2, 60 mg/kg 2% pressurized spray, week 2, of 21
  Number of Dogs on Which Fleas were Controlled: 21 dogs
[5]; Experiment 2, 60 mg/kg 2% pressurized spray, week 3, of 20**
  Number of Dogs on Which Fleas were Controlled: 20 dogs
[5]; Experiment 2, 60 mg/kg 2% pressurized spray, week 4, of 20
  Number of Dogs on Which Fleas were Controlled: 19 dogs
[5]; Experiment 2, 60 mg/kg 2% pressurized spray, week 5, of 20
  Number of Dogs on Which Fleas were Controlled: 18 dogs
[5]; Experiment 2, 60 mg/kg 2% pressurized spray, week 6, of 20
  Number of Dogs on Which Fleas were Controlled: 14 dogs
[5]; Experiment 2, 60 mg/kg 2% pressurized spray, week 7, of 20
  Number of Dogs on Which Fleas were Controlled: 12 dogs
[5]; Test 1, 60 mg/kg, week 0, control 38
  Avg. Dead on Treated: 34.6
[5]; Test 1, 60 mg/kg, week 1, control 10.4
  Avg. Dead on Treated: 38.2
[5]; Test 1, 60 mg/kg, week 2, control 3.4
  Avg. Dead on Treated: 42.1
[5]; Test 1, 60 mg/kg, week 3, control 4.6
  Avg. Dead on Treated: 41.6
[5]; Test 1, 60 mg/kg, week 4, control 5.4
  Avg. Dead on Treated: 37.8
[5]; Test 1, 60 mg/kg, week 5, control 5.0
  Avg. Dead on Treated: 34.1
[5]; Test 1, 60 mg/kg, week 6, control 6.2
  Avg. Dead on Treated: 34.1
[5]; Test 1, 60 mg/kg, week 7, control 6.6
  Avg. Dead on Treated: 30.8
[5]; Test 2, 60 mg/kg, week 0, control .2
  Avg. Dead on Treated: 38.0
[5]; Test 2, 60 mg/kg, week 1, control .8
  Avg. Dead on Treated: 44.5
[5]; Test 2, 60 mg/kg, week 2, control 2.6
  Avg. Dead on Treated: 40.3
[5]; Test 2, 60 mg/kg, week 3, control 5.0
  Avg. Dead on Treated: 40.7
[5]; Test 2, 60 mg/kg, week 4, control 5.0
  Avg. Dead on Treated: 43.6
[5]; Test 2, 60 mg/kg, week 5, control 6.2
  Avg. Dead on Treated: 37.9
[5]; Test 2, 60 mg/kg, week 6, control 3.5
  Avg. Dead on Treated: 26.0
[5]; Test 2, 60 mg/kg, week 7, control 3.0
  Avg. Dead on Treated: 21.8
